According to patent EP3354264A1, “PROPHYLAXIS AND TREATMENT OF NEISSERIA GONORRHOEAE EYE INFECTION” (Kingston University Higher Education Corporation, priority 2017, dated 2018):
Converted amounts (≈) assume the structure as drawn. Where two headings read alike, the source gives them in different places.

Key:
[1] = tested on: Neisseria gonorrhoeae strain NCCP11945; experiment: Measurement of bactericidal action (log reduction); assay type: cell-based; conditions: strain NCCP11945, 1 mM, 2 minutes; for log reduction at 1000 µM: Neisseria gonorrhoeae, 2 min, read-out: Log reduction of Neisseria gonorrhoeae
Procedure: (§1) The well characterised N. gonorrhoeae strain NCCP11945 (Chung GT et al. (2008) Complete genome sequence of Neisseria gonorrhoeae NCCP11945. Journal of Bacteriology 190: 6035-6036) was used in the screening stage of this experiment. Eight isolates that were obtained from Public Health England from various European locations were used in the log reduction assays. All isolates were first cultured for 24 hours prior to testing by plating on GC solid medium (Oxoid Limited, Hampshire, UK) with Kellogg supplements and incubating at 37 °C, 5% CO2 (Kellogg DS, Jr., et al., (1963), J Bacteriol 85: 1274-1279).
(§2) A full list of all the organic acids tested in this study is in Table 1. The tested compounds include saturated and unsaturated fatty acids, monoglycerides, dicarboxylic acids, and fatty acid sodium salts. All compounds investigated were resuspended at a concentration of 100 mM in ethanol unless stated. All chemicals were obtained from Sigma-Aldrich (Poole, Dorset, UK).
(§3) Log reductions were done using the same method as in Bergsson et al., (1999), Antimicrob Agents Chemother 43: 2790-2792. Briefly, cells were suspended in GC broth (18 g/L GC Base (Oxiod, Limited) with added defined supplements) to an optical density of 0.3 at 520 nm which is approximately equivalent to 107 - 108 cells per millilitre (Macfarlane DE et al. (1980) Improved media for the culture of Neisseria gonorrhoeae. J Med Microbiol 13: 597-607). Five hundred microliters of the suspension was then added to 5 µl of the 100 mM stocks to give a final concentration of 1 mM. A negative control was also done to calculate the reduction in bacterial titre by adding 500 µl to 5 µl ethanol. The tubes were then mixed at room temperature for two minutes and immediately diluted in a 10 fold dilution series down to 10-4. The dilutions were plated by spreading 10 µl on a quarter of a plate and 100 µl of the neat solution was also plated. Plates were incubated at 37 °C for 48 hours. All samples were plated in duplicate. A reduction in viable cell count by more than 4 log10 was deemed to be bactericidal and was selected for further investigation. Bactericidal compounds were then tested at concentrations of 0.75, 0.5, and 0.25 mM (0.125 mM was also used in some potent compounds) to find the minimum bactericidal concentration. Additional testing at lower concentrations was also done on the eight clinical isolates of European origin.

[2] = tested on: Neisseria gonorrhoeae strain NCCP11945; experiment: Growth inhibition screen of organic acids; assay type: cell-based; conditions: strain NCCP11945, in vitro, 1 mM
Procedure: as §1, §2
Other organic acids were also active at this concentration, as noted in Table 1.

[3] = tested on: Neisseria gonorrhoeae strain NCCP11945; experiment: Log reduction in artificial tear fluid; assay type: cell-based; conditions: artificial tear fluid containing calcium chloride; two minute exposure; Figure 8
Procedure: Artificial tear fluid was made as in Mirejovsky et al., Optometry and Vision Science, (1991), 68: 858-864. […] Neisseria gonorrhoeae strain NCCP11945 was used in these experiments. As the previous log reductions, […] were suspended in GC broth. The cell suspension was centrifuged to remove the culture medium and the bacteria resuspended in the tear fluid. This was then added to the concentrated organic acid candidates. The cells were then counted again after two minute exposure to estimate any reduction due to the exposure to the fatty acid.
In a first experiment, the artificial tear fluid formulation includes calcium chloride to mimic the calcium in natural tears. As shown by the results in Figure 8, the anti-gonococcal properties of myristoleic acid (C14:1cΔ9), palmitoleic acid (C16:1cΔ9), linolenic acid (C18:3cΔ9,12,15), and monocaprin(C10) are retained in the artificial tear fluid formulation containing calcium chloride.
In a second experiment, calcium chloride was omitted from the artificial tear fluid formulation. The results in Figure 9 indicate that the anti-gonococcal properties of lauric acid (C12:0), tridecanoic acid (C13:0), and sodium dodecanoate were retained in the artificial tear fluid formulation without.

[4] = tested on: panel of nine N. gonorrhoeae isolates (strain NCCP11945 and eight isolates from Public Health England); experiment: Minimum bactericidal concentration by log reduction, panel of isolates; assay type: cell-based; conditions: Neisseria gonorrhoeae, 2 min; lowest concentration tested giving an average 4 log10 reduction after two minute exposure; nine isolates; read-out: Minimum bactericidal concentration
Procedure: as §1, §3
As shown by the results in Table 3 which presents data on the log reductions of bacterial cell counts, against a panel of nine N. gonorrhoeae isolates (strain NCCP11945 and eight isolates from Public Health England), myristoleic acid (C14:1cΔ9), palmitoleic acid (C16:1cΔ9), linolenic acid (C18:3cΔ9,12,15), and monocaprin (C10) have a minimal bactericidal concentration, defined as the lowest concentration tested to give an average 4 log10 reduction in bacterial count after a two minute exposure, of 0.5 mM. Against a panel of nine N. gonorrhoeae isolates, lauric acid (C12:0), tridecanoic acid (C13:0), and sodium dodecanoate have a minimal bactericidal concentration of 0.75 mM.

in vitro = assay type: cell-based, bovine; conditions: red blood cells, bovine RBCs, shaken 1 hour at room temperature
Procedure: (§4) Whole bovine blood was obtained from a local slaughter house (ABP, Guildford, Surrey, UK), adding 90 ml blood to 10 ml of 110 mM tri-sodium citrate anticoagulant. RBCs were isolated the same day. The RBCs were washed by three repeats of centrifugation (1,500 x g for 10 minutes) and resuspension in PBSG. Testing was done following European Union Reference Laboratory for alternatives to animal testing (EURL-ECVAM) guidelines (Lewis RW (2010) DB-ALM Protocol No. 99: Red blood cell (RBC) Test System. EURL ECVAM). The organic acids were made up in DMSO and diluted to a DMSO concentration maximum of 10 % (v/v). Samples were shaken at room temperature for 1 hour and then centrifuged at 10,000 rpm for 2 minutes. An aliquot of 750 µl of the supernatant was taken and absorbance at […] tested.

RBCs = experiment: in vitro; assay type: cell-based, bovine; conditions: at their minimum bactericidal concentration
Procedure: as §4

| SMILES | Inhibits growth of Neisseria gonorrhoeae [2] | log reduction at 1000 µM [1] | further results |
| --- | --- | --- | --- |
| CCCCCCCCCCCCCC(=O)O [Myristic acid 14:0, Myristic acid] | Yes | – | Log reduction of Neisseria gonorrhoeae [1]: 1.5 |
| CCCC/C=C\CCCCCCCC(=O)O [Myristoleic acid 14:1 cΔ9, (Z)-tetradec-9-enoic acid] | Yes | > 6 | anti-gonococcal properties in artificial tear fluid [3]: retained; Log reduction of Neisseria gonorrhoeae [1]: able to cause a log reduction; MBC [4]: 500 µM (≈ 113 µg/mL); HC50 at 1 h (in vitro; read-out: H50): 2.6 to 3.5 mM; HC50 at 1 h (in vitro; read-out: H50 (mg/L)): 600 to 800 mg/L; RBC lysis assay prediction of irritation (RBCs): not irritating; Inhibits growth of Neisseria gonorrhoeae ([2]; listed as myristoleic acid): able to inhibit growth |
| CCCCCCCC/C=C\CCCCCCCC(=O)O [Oleic acid 18:1 cΔ9, Oleic acid] | Yes | 1 | – |
| CCCCCCCCCCCCCCCC(=O)O [Palmitic acid 16:0, Palmitic acid] | No | – | – |
| CCCCCC/C=C\CCCCCCCC(=O)O [Palmitoleic acid 16:1 cΔ9, (9Z)-hexadec-9-enoic acid] | Yes | > 6 | anti-gonococcal properties in artificial tear fluid [3]: retained; Log reduction of Neisseria gonorrhoeae [1]: able to cause a log reduction; MBC [4]: 500 µM (≈ 127 µg/mL); HC50 at 1 h (in vitro; read-out: H50): 0.08 to 0.16 mM; HC50 at 1 h (in vitro; read-out: H50 (mg/L)): 20 to 40 mg/L; Inhibits growth of Neisseria gonorrhoeae ([2]; listed as palmitoleic acid): able to inhibit growth |
| CCCCCCCCCCCCCCC(=O)O [Pentadecylic acid 15:0, Pentadecylic acid] | Yes | 0.5 | – |
| O=C(O)CCCCCC(=O)O [Pimelic acid] | No | – | – |
| CCCCCC[C@@H](O)C/C=C\CCCCCCCC(=O)O [Ricinoleic acid] | Yes | 3.5 | – |
| O=C(O)CCCCCCCCC(=O)O [Sebacic acid] | No | – | – |
| CCCCCCCCCCCCCC(=O)[O-].[Na+] [Sodium myristate] | Yes | – | Log reduction of Neisseria gonorrhoeae [1]: 0.5 |
| C/C=C/C=C/C(=O)O [Sorbic acid 6:2 tΔ2,4, Sorbic acid] | No | – | – |
| CCCCCCCCCCCCCCCCCC(=O)O [Stearic acid 18:0, Stearic acid] | No | – | – |
| O=C(O)CCCCCCC(=O)O [Suberic acid] | No | – | – |
| O=C(O)CCC(=O)O [Succinic acid] | No | – | – |
| CCCCCCCCCCC(=O)O [Undecanoic acid 11:0, Undecanoic acid] | Yes | 0.2 | – |
| CCCCCC/C=C/CCCCCCCCCC(=O)O [trans-Vaccenic acid 18:1 tΔ11, trans-Vaccenic acid] | No | – | – |
